From patent US20090209602A1, “CHEMICAL COMPOUNDS” (priority 2006, published 2009)

Target: T1, human DGAT1 (Homo sapiens, UniProt O75907)
T1 construct: made in house; host or cells: Sf9 insect cells (recombinant baculovirus), membrane fraction
T1 sequence (O75907 1-488): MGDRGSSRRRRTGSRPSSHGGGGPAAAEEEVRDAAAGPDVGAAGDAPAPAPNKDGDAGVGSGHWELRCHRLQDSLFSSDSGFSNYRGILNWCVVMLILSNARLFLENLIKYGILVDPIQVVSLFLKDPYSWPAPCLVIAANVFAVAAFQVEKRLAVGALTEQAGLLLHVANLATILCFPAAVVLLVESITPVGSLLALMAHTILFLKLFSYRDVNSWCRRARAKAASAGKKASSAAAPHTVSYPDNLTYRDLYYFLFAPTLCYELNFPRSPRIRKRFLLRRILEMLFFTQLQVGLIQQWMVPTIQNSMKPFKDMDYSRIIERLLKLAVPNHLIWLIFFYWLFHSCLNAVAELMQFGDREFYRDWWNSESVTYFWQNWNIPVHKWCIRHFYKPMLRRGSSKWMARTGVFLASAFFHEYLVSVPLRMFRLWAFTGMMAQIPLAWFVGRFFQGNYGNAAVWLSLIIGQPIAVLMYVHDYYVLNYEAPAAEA
Test: Human Enzyme Assay (DGAT1 inhibition)
Type: biochemical
Conditions: human DGAT1 expressed in insect cell (sf9) membranes; 14C oleoyl coenzyme A, 30 minutes, room temperature
Description: The in vitro assay to identify DGAT1 inhibitors uses human DGAT1 expressed in insect cell membranes as the enzyme source (Proc. Natl. Acad. Sci. 1998, 95, 13018-13023). Briefly, sf9 cells were infected with recombinant baculovirus containing human DGAT1 coding sequences and harvested after 48 h. Cells were lysed by sonication and membranes isolated by centrifuging at 28000 rpm for 1 h at 4° C. on a 41% sucrose gradient. The membrane fraction at the interphase was collected, washed, and stored in liquid nitrogen.
DGAT1 activity was assayed by a modification of the method described by Coleman (Methods in Enzymology 1992, 209, 98-102). Compound at 1-10 μM was incubated with 0.4 μg membrane protein, 5 mM MgCl2, and 100 μM 1,2 dioleoyl-sn-glycerol in a total assay volume of 200 μl in plastic tubes. The reaction was started by adding ^14C oleoyl coenzyme A (30 μM final concentration) and incubated at room temperature for 30 minutes. The reaction was stopped by adding 1.5 mL 2-propanol:heptane:water (80:20:2). Radioactive triolein product was separated into the organic phase by adding 1 mL heptane and 0.5 mL 0.1 M carbonate buffer pH 9.5. DGAT1 activity was quantified by counting aliquots of the upper heptane layer by liquid scintillography.

- IC50: 100 nM
Compound: O=C(O)CC1CCC(c2ccc(NC(=O)c3cnc(Nc4ccccc4)o3)cc2)CC1 (stereo not shown) [Example 1, [4-(4-{[(2-Anilino-1,3-oxazol-5-yl)carbonyl]amino}phenyl)cyclohexyl]acetic acid]
